According to US8283345B2, “Azetidine analogues of nucleosidase and phosphorylase inhibitors” (Industrial Research Limited, priority 2006, dated 2012):
Where a name gives a salt, the structure may show the parent alone. Read-outs that look alike come from different tables or passages of the source.

Assays:
Human PNP = biological target: T1, Human PNP (Homo sapiens, UniProt P00491); experiment: PNP inhibition, xanthine oxidase coupled assay; type: biochemical; details: inosine Km 40 μM
T1 sequence (P00491 1-289): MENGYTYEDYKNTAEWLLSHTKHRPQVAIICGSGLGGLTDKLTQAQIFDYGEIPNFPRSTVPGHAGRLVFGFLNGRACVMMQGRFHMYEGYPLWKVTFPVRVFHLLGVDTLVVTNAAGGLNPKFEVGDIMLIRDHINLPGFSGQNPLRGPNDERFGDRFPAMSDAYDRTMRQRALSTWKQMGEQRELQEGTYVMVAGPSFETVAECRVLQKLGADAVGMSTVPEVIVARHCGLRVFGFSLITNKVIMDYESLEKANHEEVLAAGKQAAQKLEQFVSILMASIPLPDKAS
Protocol: (§2) PNP and MTAN/MTAP activities were monitored by xanthine oxidase coupled assays, as previously described [Biochemistry, 2006, 45, 12929-12941; Biochemistry, 1998, 37, 8615-8621]. […] Michaelis constants used in data fitting were as follows: 40 μM, 34 μM, and 5 μM for inosine with human, bovine, and P. falciparum PNPs, respectively; 5 μM, 0.43 μM, and 23 μM for MTA with human MTAP, E. coli MTAN, and S. pneumoniae MTAN, respectively.

Bovine PNP = biological target: T2, Bovine PNP (Bos taurus, UniProt P55859); experiment: PNP inhibition, xanthine oxidase coupled assay; type: biochemical
T2 sequence (P55859 1-289): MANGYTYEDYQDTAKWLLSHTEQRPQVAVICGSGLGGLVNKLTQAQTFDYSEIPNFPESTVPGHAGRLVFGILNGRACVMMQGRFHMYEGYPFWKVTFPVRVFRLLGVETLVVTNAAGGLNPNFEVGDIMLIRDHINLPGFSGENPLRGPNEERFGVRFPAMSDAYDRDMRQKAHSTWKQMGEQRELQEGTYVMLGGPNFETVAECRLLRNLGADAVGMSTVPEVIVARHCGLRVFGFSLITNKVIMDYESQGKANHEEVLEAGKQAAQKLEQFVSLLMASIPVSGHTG
Protocol: as §2

P. falciparum PNP = biological target: T3, P. falciparum PNP (Plasmodium falciparum, UniProt Q8I3X4); experiment: biochemical
T3 sequence (Q8I3X4 1-245): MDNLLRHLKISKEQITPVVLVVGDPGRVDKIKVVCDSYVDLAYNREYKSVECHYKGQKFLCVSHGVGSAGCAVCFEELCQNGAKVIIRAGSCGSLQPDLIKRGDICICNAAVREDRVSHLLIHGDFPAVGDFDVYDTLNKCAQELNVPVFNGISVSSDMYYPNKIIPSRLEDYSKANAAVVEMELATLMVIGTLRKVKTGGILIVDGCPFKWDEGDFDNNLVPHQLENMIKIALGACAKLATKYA
Protocol: as §2

Human MTAP = biological target: T4, Human MTAP (Homo sapiens, UniProt Q13126); experiment: MTAP inhibition, xanthine oxidase coupled assay; type: biochemical; details: MTA Km 5 μM
T4 sequence (Q13126 1-283): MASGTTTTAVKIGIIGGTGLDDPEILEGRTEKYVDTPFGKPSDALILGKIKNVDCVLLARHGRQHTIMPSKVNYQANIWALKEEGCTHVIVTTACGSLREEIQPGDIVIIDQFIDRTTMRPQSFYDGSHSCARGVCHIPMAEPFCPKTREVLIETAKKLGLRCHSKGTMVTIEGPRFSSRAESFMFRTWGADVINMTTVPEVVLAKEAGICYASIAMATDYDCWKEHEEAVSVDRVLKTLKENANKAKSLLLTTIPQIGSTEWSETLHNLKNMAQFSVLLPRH

S. pneumoniae MTAN = S. pneumoniae MTAN (Streptococcus pneumoniae, UniProt Q8DQ16); experiment: MTAN inhibition, xanthine oxidase coupled assay; type: biochemical; details: MTA Km 23 μM
Chain of S. pneumoniae MTAN (Q8DQ16 entry or part of it): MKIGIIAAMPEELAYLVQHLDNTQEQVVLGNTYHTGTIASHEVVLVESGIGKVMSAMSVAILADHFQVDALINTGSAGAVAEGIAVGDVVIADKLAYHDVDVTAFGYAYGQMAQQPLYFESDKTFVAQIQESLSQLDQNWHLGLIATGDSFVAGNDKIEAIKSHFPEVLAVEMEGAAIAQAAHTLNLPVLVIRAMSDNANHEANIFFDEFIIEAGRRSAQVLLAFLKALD
Protocol: (§1) For PNP assays, inosine and inhibitor concentrations were determined spectrophotometrically using an ε260 of 7.1 mM^−1 cm^−1 (pH 6) [Dawson' et al, Data for Biochemical Research, 3rd ed., 1986, Clarendon Press, Oxford, U.K.] and an ε261 of 9.54 mM^−1 cm^−1 (pH 7) [Lim, M.-I.; Ren, Y.-Y.; Otter, B. A.; Klein, R. S., J. Org. Chem. 1983, 48, 780-788], respectively. For MTAN/MTAP assays, methylthioadenosine and inhibitor concentrations were determined using an ε260 of 14.9 mM^−1 cm^−1 (pH 6) [Dawson et al, as above] and an ε275 of 8.5 mM^−1 cm^−1 (pH 7), [J. Org. Chem. 1983, 48, 780-788] respectively. PNP and MTAN/MTAP activities were monitored by xanthine oxidase coupled assays, as previously described [Biochemistry, 2006, 45, 12929-12941; Biochemistry, 1998, 37, 8615-8621]. In all cases, the inhibitor concentration was at least 10-fold greater than the enzyme concentration, as required for simple analysis of slow-onset tight-binding inhibition [Morrison, J. F.; Walsh, C. T. Adv. Enzymol. Relat. Areas Mol. Biol., 1988, 61, 201-301] Michaelis constants used in data fitting were as follows: 40 μM, 34 μM, and 5 μM for inosine with human, bovine, and P. falciparum PNPs, respectively; 5 μM, 0.43 μM, and 23 μM for MTA with human MTAP, E. coli MTAN, and S. pneumoniae MTAN, respectively.

E. coli MTAN = E. coli MTAN (Escherichia coli, UniProt P0AF12); experiment: MTAN inhibition, xanthine oxidase coupled assay; type: biochemical; details: MTA Km 0.43 μM
Chain of E. coli MTAN (P0AF12 whole entry): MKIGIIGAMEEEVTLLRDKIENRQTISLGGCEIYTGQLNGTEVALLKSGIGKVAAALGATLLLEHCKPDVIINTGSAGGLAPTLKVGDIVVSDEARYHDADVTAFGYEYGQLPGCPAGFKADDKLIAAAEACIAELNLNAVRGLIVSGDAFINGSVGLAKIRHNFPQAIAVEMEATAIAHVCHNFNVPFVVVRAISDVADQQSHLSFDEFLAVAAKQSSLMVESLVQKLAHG
Protocol: as §1

[1] = inhibition constant Ki, read-out: Ki Human PNP
[2] = inhibition constant Ki, inosine Km 34 μM, read-out: Ki Bovine PNP

`O=c1[nH]cnc2c(CN3[C@H](CO)C[C@H]3CO)c[nH]c12` (racemic) [(±)-37, (±)2,4-trans-[(9-Deazahypoxanthin-9-yl)methyl]azetidine-2,4-dimethanol hydrochloride] showed a Ki (Human PNP; [1]) of 280 nM, a Ki (Bovine PNP; [2]) of 360 nM and a Ki (P. falciparum PNP) of 580 nM.
`O=c1[nH]cnc2c(CN3CCC3CO)c[nH]c12` (racemic) [(±)-43, (±)7-((2-(Hydroxymethyl)azetidin-1-yl)methyl)-5H-pyrrolo[3,2-d]pyrimidin-4-ol] gave a Ki (Human PNP; Ki Human PNP, inhibition constant Ki) of 1.8 nM, a Ki (Human PNP; Ki* Human PNP, Ki*, slow-onset tight-binding inhibition) of 0.26 nM and a Ki (Bovine PNP) of 1.8 nM.
With `O=c1[nH]cnc2c(CN3CC(CO)(CO)C3)c[nH]c12` [Compound 18, 1-[(9-Deazahypoxanthin-9-yl)methyl]azetidine-3,3-dimethanol] the Ki (Human PNP; [1]) was 0.229 nM, the Ki (Bovine PNP) was 0.065 nM and the Ki (Bovine PNP; Ki*, slow-onset tight-binding inhibition, inosine Km 34 μM, read-out: Ki* Bovine PNP) was 0.236 nM. The Ki (P. falciparum PNP) was greater than 10000 nM.
`O=c1[nH]cnc2c(CN3CC(CO)C3)c[nH]c12` [Compound 19, 1-[(9-Deazahypoxanthin-9-yl)methyl]azetindine-3-methanol] gave a Ki (Human PNP; [1]) of 6.3 nM, a Ki (Bovine PNP; [2]) of 4.8 nM and a Ki (P. falciparum PNP; read-out: Ki P. falciparum PNP) greater than 10000 nM.
With `CSCC1(CO)CN(Cc2c[nH]c3c(N)ncnc23)C1` [Compound 21, 1-[(9-Deazaadenin-9-yl)methyl]-3-methylthiomethylazetidine-3-methanol hydrochloride] the Ki (Human MTAP) was 140 nM, the Ki (S. pneumoniae MTAN) was 150 nM and the Ki (E. coli MTAN) was 0.84 nM.
`CSCC1CN(Cc2c[nH]c3c(N)ncnc23)C1` [Compound 22, 1-[(9-Deazaadenin-9-yl)methyl]-3-methylthiomethylazetidine] gave a Ki (Human MTAP) of 2 nM, a Ki (S. pneumoniae MTAN) of 84 nM and a Ki (E. coli MTAN) of 0.45 nM.
`O=c1[nH]cnc2c(CN3[C@H](CO)C[C@@H]3CO)c[nH]c12` [Compound 36, meso-[(9-Deazahypoxanthin-9-yl)methyl]azetidine-2,4-dimethanol hydrochloride] showed a Ki (Human PNP; [1]) of 12.9 nM, a Ki (Bovine PNP; [2]) of 16 nM and a Ki (P. falciparum PNP) of 1290 nM.
